Values after ≈ are worked out from the molar mass of the structure shown. Read-outs that look alike come from different tables or passages of the source.
Experiments:
[1] = test system: strains of A. baumannii and one strain of Acinetobacter sp.; assay: MIC with sub-inhibitory concentrations (0.25x MIC) of polymyxin B, panel of Acinetobacter strains (Example 4); format: cell-based; details: 2nd experiment; 0.06 μg/ml polymyxin B; all strains except the ATCC strain
A. baumannii ATCC 19606 [2] = assay: MIC without and with sub-inhibitory polymyxin B (Example 4); format: cell-based, Acinetobacter baumannii; details: for MIC without PB/MIC + PB: A. baumannii ATCC 19606; for MIC: Acinetobacter baumannii
A. baumannii ATCC 19606 [3] = assay: Preliminary MBC without and with sub-inhibitory polymyxin B (Example 4); format: cell-based, Acinetobacter baumannii; details: Acinetobacter baumannii
A. baumannii J2 [4] = assay: MIC without and with sub-inhibitory polymyxin B (Example 4); format: cell-based, Acinetobacter baumannii
A. baumannii J2 [5] = assay: Preliminary MBC without and with sub-inhibitory polymyxin B (Example 4); format: cell-based, Acinetobacter baumannii; details: Acinetobacter baumannii, preliminary MBC
[6] = test system: Acinetobacter sp. (H064200250); assay: MIC without and with sub-inhibitory polymyxin B (Example 4); format: cell-based; details: for MIC: Acinetobacter
[7] = test system: Acinetobacter sp. (H064200250); assay: Preliminary MBC without and with sub-inhibitory polymyxin B (Example 4); format: cell-based; details: Acinetobacter, preliminary MBC
Outline: (§1)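 After plating, cultures are held at 37° C for 18-20 hours; the endpoint is then scored by comparing colony growth against the positive control, with MBC defined as the lowest concentration showing roughly 90% reduction.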

A. baumannii A329 [8] = assay: MIC without and with sub-inhibitory polymyxin B (Example 4); format: cell-based, Acinetobacter baumannii; details: +0.06 μg/ml PB, 2nd experiment
A. baumannii A329 [9] = assay: Preliminary MBC without and with sub-inhibitory polymyxin B (Example 4); format: cell-based, Acinetobacter baumannii; details: Acinetobacter baumannii, A329, A. baumannii A329, +0.06 μg/ml PB, 2nd experiment, read-out: MBC
A. baumannii A387 [10] = assay: MIC without and with sub-inhibitory polymyxin B (Example 4); format: cell-based, Acinetobacter baumannii; details: for MIC without PB/MIC + PB: A. baumannii A387; for MIC: Acinetobacter baumannii
A. baumannii A387 [11] = assay: Preliminary MBC without and with sub-inhibitory polymyxin B (Example 4); format: cell-based, Acinetobacter baumannii; details: Acinetobacter baumannii
A. baumannii A14 [12] = assay: as above; format: cell-based, Acinetobacter baumannii; details: 2nd experiment
Outline: as §1

A. baumannii A390 = assay: as above; format: cell-based, Acinetobacter baumannii; details: Acinetobacter baumannii, A390, A. baumannii A390, +0.06 μg/ml PB, 2nd experiment, read-out: MBC
Outline: as §1

A. baumannii A473 [13] = assay: as above; format: cell-based, Acinetobacter baumannii; details: Acinetobacter baumannii, A473, A. baumannii A473, +0.06 μg/ml PB, 2nd experiment, read-out: MBC
Outline: as §1

A. baumannii NCTC 13301 [14] = assay: as above; format: cell-based, Acinetobacter baumannii; details: Acinetobacter baumannii
Outline: as §1

A. baumannii A401 [15] = assay: MIC without and with sub-inhibitory polymyxin B (Example 4); format: cell-based, Acinetobacter baumannii; details: for MIC: Acinetobacter baumannii
A. baumannii A401 [16] = assay: Preliminary MBC without and with sub-inhibitory polymyxin B (Example 4); format: cell-based, Acinetobacter baumannii; details: Acinetobacter baumannii
A. baumannii A473 [17] = assay: MIC without and with sub-inhibitory polymyxin B (Example 4); format: cell-based, Acinetobacter baumannii; details: +0.06 μg/ml PB, 2nd experiment
A. baumannii A489 [18] = assay: as above; format: cell-based, Acinetobacter baumannii; details: for MIC without PB/MIC + PB: A. baumannii A489; for MIC: Acinetobacter baumannii
A. baumannii A489 [19] = assay: Preliminary MBC without and with sub-inhibitory polymyxin B (Example 4); format: cell-based, Acinetobacter baumannii; details: Acinetobacter baumannii, preliminary MBC
A. baumannii NCTC 13301 [20] = assay: MIC without and with sub-inhibitory polymyxin B (Example 4); format: cell-based, Acinetobacter baumannii
A. baumannii NCTC 13301 [21] = assay: as above; format: cell-based, Acinetobacter baumannii; details: +[…] PB, 2nd experiment
A. baumannii A14 [22] = assay: as above; format: cell-based, Acinetobacter baumannii; details: 1st experiment
A. baumannii A14 [23] = assay: Preliminary MBC without and with sub-inhibitory polymyxin B (Example 4); format: cell-based, Acinetobacter baumannii; details: A. baumannii A14; +0.06 μg/ml polymyxin B; preliminary MBC; 1st experiment
[24] = ratio, PB 0.06 μg/ml, 1st experiment

## Cc1c(-c2ccc(N)cc2)ccn2c(=O)c(C(=O)O)cc(C3CC3)c12 [Compound 8, 8-(4-amino-phenyl)-1-cyclopropyl-9-methyl-4-oxo-quinolizine-3-carboxylic acid]
[1]
  MIC range with PB (0.25x MIC) Oct. 14, 2008 n = 11: ≤0.03 to 8 µg/mL
A. baumannii ATCC 19606 [2]; +0.06 μg/ml PB, 2nd experiment
  MIC without PB/MIC + PB: ≥8
A. baumannii ATCC 19606 [2]; [24]
  MIC without PB/MIC + PB: ≥32
A. baumannii ATCC 19606 [2]; ATCC19606, A. baumannii ATCC 19606, +0.06 μg/ml PB, 2nd experiment, read-out: MIC
  MIC: ≤ 0.03 µg/mL
A. baumannii ATCC 19606 [2]; ATCC19606, read-out: MIC +0.06 μg/ml PB, A. baumannii ATCC 19606, +0.06 μg/ml polymyxin B, 1st experiment
  MIC: ≤ 0.03 µg/mL
A. baumannii ATCC 19606 [3]; ATCC19606, A. baumannii ATCC 19606, +0.06 μg/ml PB, 2nd experiment, read-out: MBC
  MBC: ≤ 0.03 µg/mL
A. baumannii ATCC 19606 [3]; ATCC19606, read-out: MBC +0.06 μg/ml PB, A. baumannii ATCC 19606, +0.06 μg/ml polymyxin B, 1st experiment
  MBC: ≤ 0.03 µg/mL
A. baumannii J2 [4]; A. baumannii J2, +[…] PB, 2nd experiment
  MIC without PB/MIC + PB: ≥128
A. baumannii J2 [4]; A. baumannii J2, +[…] polymyxin B, 1st experiment
  MIC +[…] PB: 0.125 µg/mL (≈ 0.374 µM)
A. baumannii J2 [4]; A. baumannii J2, ratio, PB […], 1st experiment
  MIC without PB/MIC + PB: 64
A. baumannii J2 [4]; Acinetobacter baumannii, J2, A. baumannii J2, +[…] PB, 2nd experiment, read-out: MIC
  MIC: ≤ 0.03 µg/mL
A. baumannii J2 [5]; J2, A. baumannii J2, +[…] PB, 2nd experiment, read-out: MBC
  MBC: ≤ 0.03 µg/mL
A. baumannii J2 [5]; J2, read-out: MBC +[…] PB, A. baumannii J2, +[…] polymyxin B, 1st experiment
  MBC: 0.125 µg/mL (≈ 0.374 µM)
[6]; Acinetobacter spp. H064200250 (OXA51), +[…] PB, 2nd experiment
  MIC without PB/MIC + PB: 32
[6]; Acinetobacter spp. H064200250, ratio, PB […], 1st experiment
  MIC without PB/MIC + PB: 32
[6]; Acinetobacter spp. H064200250 (OXA51), +[…] PB, 2nd experiment, read-out: MIC
  MIC: 0.125 µg/mL (≈ 0.374 µM)
[6]; read-out: MIC +[…] PB, Acinetobacter spp. H064200250, +[…] polymyxin B, 1st experiment
  MIC: 0.06 µg/mL (≈ 0.179 µM)
[7]; Acinetobacter spp. H064200250 (OXA51), +[…] PB, 2nd experiment, read-out: MBC
  MBC: 0.125 µg/mL (≈ 0.374 µM)
[7]; read-out: MBC +[…] PB, Acinetobacter spp. H064200250, +[…] polymyxin B, 1st experiment
  MBC: 0.5 µg/mL (≈ 1.5 µM)
A. baumannii A329 [8]; A. baumannii A329
  MIC without PB/MIC + PB: 4
A. baumannii A329 [8]; Acinetobacter baumannii, A329, A. baumannii A329, read-out: MIC
  MIC: 2 µg/mL (≈ 5.98 µM)
A. baumannii A329 [9]
  MBC: 2 µg/mL (≈ 5.98 µM)
A. baumannii A387 [10]; +0.06 μg/ml PB, 2nd experiment
  MIC without PB/MIC + PB: 2
A. baumannii A387 [10]; [24]
  MIC without PB/MIC + PB: ≥64
A. baumannii A387 [10]; A387, A. baumannii A387, +0.06 μg/ml PB, 2nd experiment, read-out: MIC
  MIC: 0.5 µg/mL (≈ 1.5 µM)
A. baumannii A387 [10]; A387, read-out: MIC +0.06 μg/ml PB, A. baumannii A387, +0.06 μg/ml polymyxin B, 1st experiment
  MIC: ≤ 0.03 µg/mL
A. baumannii A387 [11]; A387, A. baumannii A387, +0.06 μg/ml PB, 2nd experiment, read-out: MBC
  MBC: 0.25 µg/mL (≈ 0.748 µM)
A. baumannii A387 [11]; A387, read-out: MBC +0.06 μg/ml PB, A. baumannii A387, +0.06 μg/ml polymyxin B, 1st experiment
  MBC: ≤ 0.03 µg/mL
A. baumannii A14 [12]; A. baumannii A14, +0.06 μg/ml PB
  MBC: 0.5 µg/mL (≈ 1.5 µM)
A. baumannii A14 [12]; Acinetobacter baumannii, A14, A. baumannii A14, without PB, read-out: MBC
  MBC: 16 µg/mL (≈ 47.9 µM)
A. baumannii A390
  MBC: 0.5 µg/mL (≈ 1.5 µM)
A. baumannii A473 [13]
  MBC: 0.5 µg/mL (≈ 1.5 µM)
A. baumannii NCTC 13301 [14]; NCTC13301, A. baumannii NCTC 13301, +[…] PB, preliminary MBC, 2nd experiment, read-out: MBC
  MBC: 0.5 µg/mL (≈ 1.5 µM)
A. baumannii NCTC 13301 [14]; NCTC13301, read-out: MBC +[…] PB
  MBC: 1 µg/mL (≈ 2.99 µM)
A. baumannii A401 [15]; A baumannii A 401, ratio, PB 0.06 μg/ml, 1st experiment
  MIC without PB/MIC + PB: ≥1024
A. baumannii A401 [15]; A401, A baumannii A 401, +0.06 μg/ml PB, 2nd experiment, read-out: MIC
  MIC: 0.25 µg/mL (≈ 0.748 µM)
A. baumannii A401 [15]; A401, read-out: MIC +0.06 μg/ml PB, A baumannii A 401, +0.06 μg/ml polymyxin B, 1st experiment
  MIC: ≤ 0.03 µg/mL
A. baumannii A401 [16]; A401, A baumannii A 401, +0.06 μg/ml PB, 2nd experiment, read-out: MBC
  MBC: 0.25 µg/mL (≈ 0.748 µM)
A. baumannii A401 [16]; A401, read-out: MBC +0.06 μg/ml PB, A baumannii A 401, +0.06 μg/ml polymyxin B, 1st experiment
  MBC: ≤ 0.03 µg/mL
A. baumannii A473 [17]; A. baumannii A473
  MIC without PB/MIC + PB: 8
A. baumannii A473 [17]; Acinetobacter baumannii, A473, A. baumannii A473, read-out: MIC
  MIC: 0.5 µg/mL (≈ 1.5 µM)
A. baumannii A489 [18]; +[…] PB, 2nd experiment
  MIC without PB/MIC + PB: ≥256
A. baumannii A489 [18]; ratio, PB […], 1st experiment
  MIC without PB/MIC + PB: ≥64
A. baumannii A489 [18]; A489, A. baumannii A489, +[…] PB, 2nd experiment, read-out: MIC
  MIC: ≤ 0.03 µg/mL
A. baumannii A489 [18]; A489, read-out: MIC +[…] PB, A. baumannii A489, +[…] polymyxin B, 1st experiment
  MIC: ≤ 0.03 µg/mL
A. baumannii A489 [19]; A489, A. baumannii A489, +[…] PB, 2nd experiment, read-out: MBC
  MBC: ≤ 0.03 µg/mL
A. baumannii A489 [19]; A489, read-out: MBC +[…] PB, A. baumannii A489, +[…] polymyxin B, 1st experiment
  MBC: ≤ 0.03 µg/mL
A. baumannii NCTC 13301 [20]; A. baumannii NCTC 13301, ratio, PB […], 1st experiment
  MIC without PB/MIC + PB: 64
A. baumannii NCTC 13301 [20]; Acinetobacter baumannii, NCTC13301, read-out: MIC +[…] PB
  MIC: 0.5 µg/mL (≈ 1.5 µM)
A. baumannii NCTC 13301 [21]; A. baumannii NCTC 13301
  MIC without PB/MIC + PB: 32
A. baumannii NCTC 13301 [21]; Acinetobacter baumannii, NCTC13301, A. baumannii NCTC 13301, read-out: MIC
  MIC: 0.5 µg/mL (≈ 1.5 µM)
A. baumannii A14 [22]; +0.06 μg/ml polymyxin B
  MIC +0.06 μg/ml PB: 1 µg/mL
A. baumannii A14 [22]; ratio, PB 0.06 μg/ml
  MIC without PB/MIC + PB: 32
A. baumannii A14 [23]
  MBC +0.06 μg/ml PB: 1 µg/mL
